Test results published in paper PMC5312529 (BMC Cancer, 2017).
Where two headings read alike, the source gives them in different places. Marks after values point to notes of the source that are not given here.

Legend:
[1] = test system: patients with advanced solid tumors; details: cited from earlier work
[2] = test system: Stage II-IV locally advanced or metastatic pancreatic cancer; assay: Phase II randomized trial: overall survival, PFS, response (RECIST v 1.1); type: in vivo, human
Description: Adult patients who had given informed consent had adequate hematological, liver, and renal functions; histological or cytological evidence of a diagnosis of Stage II or III adenocarcinoma of the pancreas not amenable to resection with curative intent or Stage IV disease; and an Eastern Cooperative Oncology Group performance status (ECOG PS) 0–2. Patients with previous radical surgery for pancreatic cancer were eligible after progression was documented.
(§1) Prior to enrollment, the study protocol, patient informed consent, and any other written study documentation were approved by an ethics committee. This trial was conducted in accordance with the Declaration of Helsinki and the Good Clinical Practice Guidelines of the International Conference on Harmonization. Phase II of this open-label, multicenter, randomized, 2-arm, Phase I/II trial was conducted in patients with locally advanced or metastatic pancreatic cancer. […] Patients continued on treatment until disease progression, unacceptable toxicity, or patient unwillingness to participate.
In addition to the Bayesian model, frequentist analysis of OS was also performed as a sensitivity analysis. The definition of secondary efficacy variables was consistent with standard conventions per RECIST (v 1.1).

[3] = test system: patients with locally advanced or metastatic pancreatic cancer; assay: Safety: treatment-emergent adverse events graded by CTCAE v 3.0; type: in vivo, human
Protocol: as §1
All patients who received at least one dose of study drug were evaluated for safety and toxicity. AE severity was graded using the Common Terminology Criteria for AEs (CTCAE) v 3.0.

[4] = test system: carbohydrate antigen 19–9 (CA19-9); assay: CA19-9 biomarker response; type: in vivo, human; details: patients with baseline CA19-9 > upper limit of normal
Description: Exploratory analyses included: change from baseline in tumor size and carbohydrate antigen 19–9 (CA19-9) levels, and changes in QTcF from electrocardiograms (ECG) obtained at baseline and after LY2603618 administration on days 2 and 16 during cycle one. […] A sample for CA–19–9 analysis was collected at the start of each cycle.

[5] = test system: genomic DNA; assay: Nucleoside analog DNA incorporation assay (gemcitabine/dFdC in genomic DNA); type: in vivo, human
[6] = test system: patients with locally advanced or metastatic pancreatic cancer; assay: Patient disposition and treatment exposure; type: in vivo
Protocol: as §1
The first patient was enrolled on 26 February 2009.

[7] = test system: metastatic pancreatic adenocarcinoma; design: method as in PMID 21969517; details: MPACT; cited from earlier work
[8] = LY2603618 plasma pharmacokinetics, noncompartmental analysis; type: in vivo, human; details: for Cmax / AUC(0-inf) / AUC(0-t) / clearance / Vd / half-life: 230 mg; for Cmax: read-out: Cmax, Geometric Mean (CV%); for AUC(0-inf): read-out: AUC(0-∞), Geometric Mean (CV%); for AUC(0-t): read-out: AUC(0–24), Geometric Mean (CV%); for clearance: read-out: CL, Geometric Mean (CV%) (converted); for Vd: read-out: Vss, Geometric Mean (CV%); for half-life: read-out: t1/2, Geometric Mean (CV%) (converted)
Protocol: LY2603618 concentrations were quantified using a validated high-pressure liquid chromatography/mass spectrometry/mass spectrometry method. Whole blood samples were collected following the LY2603618 infusion on days 2 and 16 of cycle 1 before the start (<10 min) of infusion; immediately prior to the end of infusion (<5 min); and at 1, 3, and 24 h after the end of infusion. LY2603618 PK parameters were computed from the plasma concentration versus time data by standard noncompartmental analyses (Phoenix WinNonlin version 6.3, Pharsight, A Certara Company®; Princeton, NJ, USA).

[9] = test system: Fridericia’s heart rate-corrected QT interval (QTcF); assay: Exploratory QTcF assessment from electrocardiograms; type: in vivo, human; details: ECG at baseline and after LY2603618 on days 2 and 16 of cycle one
Description: Exploratory analyses included: change from baseline in tumor size and carbohydrate antigen 19–9 (CA19-9) levels, and changes in QTcF from electrocardiograms (ECG) obtained at baseline and after LY2603618 administration on days 2 and 16 during cycle one.

[10] = test system: HT-29 xenograft models; design: method as in data on file; details: nonclinical HT-29 xenograft models; ref data on file; cited from earlier work
[11] = test system: patients with solid tumors; design: method as in PMID 27598338; details: in combination with gemcitabine; cited from earlier work
[12] = study drug-related TEAE, any grade
[13] = 230 mg LY2603618, Cycle 1 Day 2
[14] = 230 mg LY2603618, Cycle 1 Day 16
[15] = 230 mg LY2603618, days 2 and 16 of cycle 1
[16] = human, plasma, intravenous, 230 mg LY2603618, Cycle 1 Day 2
[17] = human, plasma, intravenous, 230 mg LY2603618, Cycle 1 Day 16

In the case of `NC(=O)Nc1cc(-c2cccc(F)c2)sc1C(=O)N[C@H]1CCCNC1` [AZD7762], the “Toxicity observed in Phase 1 study” value [1] is given as “unpredictable cardiac toxicity was observed”.
With `Nc1ccn([C@@H]2O[C@H](CO)[C@@H](O)C2(F)F)c(=O)n1` [Gemcitabine, gemcitabine] the “Median overall survival (OS)” value ([2]; ITT population, frequentist analysis) was 8.3 months, the “Best Overall Response: CR” value ([2]; in vivo) was 0 n (%; 95% CI) and the “Best Overall Response: PR” value ([2]; in vivo) was 3 (8.8%; 1.9–23.7) n (%; 95% CI). For the same compound, the “Best Overall Response: SD” value ([2]; in vivo) was 19 (55.9%; 37.9–72.8) n (%; 95% CI), the “Clinical Benefit Rate” value ([2]; in vivo) was 22 (64.7%; 46.5–80.3) n (%; 95% CI) and the Clinical benefit rate ([2]; in vivo) was 64.7%. The “Duration of response, Median (range)” value ([2]; in vivo) was 6.0 (3.7–6.8) mos, the “Percentage of patients with partial response (PR)” value ([2]; in vivo) was 8.8% and the “Events leading to discontinuation that were possibly related to treatment” value ([3]; among patients who discontinued due to AEs) was “four”. For the same compound, the “Study drug-related treatment-emergent AEs (TEAEs), patients” value ([3]; any grade) was 91.2%, the “Patients with ≥1 TEAE (study drug-related)” value ([3]; any grade, safety population) was 31 (91.2) n (%) and the “Patients who discontinued the study due to AEs” value ([3]; in vivo) was 6 n. The “Serious adverse events (SAE) related to study treatment, patients” value ([3]; in vivo) was 23.5%, the Alopecia [3, 12] was 4 (11.8) n (%) and the Anemia [3, 12] was 9 (26.5) n (%). For the same compound, the Asthenia [3, 12] was 5 (14.7) n (%), the Constipation [3, 12] was 3 (8.8) n (%) and the Decreased appetite [3, 12] was 3 (8.8) n (%). For the same compound, the Diarrhea [3, 12] was 3 (8.8) n (%), the Fatigue [3, 12] was 10 (29.4) n (%) and the Leukopenia [3, 12] was 5 (14.7) n (%). The Nausea [3, 12] was 8 (23.5) n (%), the Neutropenia [3, 12] was 9 (26.5) n (%) and the Oedema peripheral [3, 12] was 2 (5.9) n (%). The “Patients who experienced anemia” value [3, 12] was 26.5%, the Pyrexia [3, 12] was 5 (14.7) n (%) and the Stomatitis [3, 12] was 1 (2.9) n (%). For the same compound, the Thrombocytopenia [3, 12] was 14 (41.2) n (%), the Vomiting [3, 12] was 3 (8.8) n (%) and the Decreased hemoglobin ([3]; study drug-related, Grade 3) was 4 (11.8) n (%). For the same compound, the Decreased leukocytes ([3]; study drug-related, Grade 3) was 1 (2.9) n (%), the Decreased platelets ([3]; study drug-related, Grade 3) was 3 (8.8) n (%) and the Dehydration ([3]; study drug-related, Grade 3) was 2 (5.9) n (%). For the same compound, the Fatigue ([3]; study drug-related, Grade 3) was 3 (8.8) n (%), the Hyponatremia ([3]; study drug-related, Grade 3) was 2 (5.9) n (%) and the “Patients with ≥1 TEAE” value ([3]; study drug-related, Grade 3) was 19 (55.9) n (%). The Thrombotic microangiopathy ([3]; study drug-related, Grade 3) was 2 (5.9) n (%), the Decreased hemoglobin ([3]; study drug-related, Grade 4) was 0 n (%) and the Decreased leukocytes ([3]; study drug-related, Grade 4) was 1 (2.9) n (%). The Decreased platelets ([3]; study drug-related, Grade 4) was 1 (2.9) n (%), the Dehydration ([3]; study drug-related, Grade 4) was 0 n (%) and the Fatigue ([3]; study drug-related, Grade 4) was 0 n (%). For the same compound, the Hyponatremia ([3]; study drug-related, Grade 4) was 0 n (%), the “Patients with ≥1 TEAE” value ([3]; study drug-related, Grade 4) was 3 (8.8) n (%) and the Thrombotic microangiopathy ([3]; study drug-related, Grade 4) was 0 n (%). For the same compound, the “Patients with >50% reduction from baseline in CA19-9 levels” value [4] was 64%, the “dFdC levels incorporated into DNA over the treatment cycle” value ([5]; following gemcitabine administration) was “declining to almost baseline by the end of each treatment cycle” and the “Study discontinuation due to death” value ([6]; ITT population) was 2.9%. For the same compound, the “Study discontinuation due to progressive disease” value ([6]; ITT population) was 61.8%, the “Study discontinuation due to AE” value ([6]; human, in vivo) was 17.6% and the “Median OS” value [7] was 6.7 months.
With `Cc1cnc(NC(=O)Nc2cc(Br)c(C)cc2OC[C@@H]2CNCCO2)cn1` [LY2603618] the “Effect of the addition of LY2603618 on the safety profile of gemcitabine” value ([3]; in vivo) was “did not significantly change the safety profile of gemcitabine”, the “AUC(tlast-∞), Geometric Mean (CV%)” value [8, 13] was 14.3 (131) ^d % and the “Cav,24, Geometric Mean (CV%)” value [8, 13] was 966 (68) ^d ng/mL. The “AUC(tlast-∞), Geometric Mean (CV%)” value [8, 14] was 12.0 (152) ^e %, the “Cav,24, Geometric Mean (CV%)” value [8, 14] was 987 (60) ^e ng/mL and the “tmax, Median (range)” value [8, 14] was 1.00 (0.88–1.83) h. The “Individual PK profiles above the target for AUC(0-∞) (≥21,000 ng hr/mL)” value [8, 15] was 73%, the “Individual PK profiles above the target for Cmax (≥2000 ng/mL)” value [8, 15] was 87% and the Cmax ([8]; human, plasma, intravenous, 230 mg LY2603618 1-h infusion ~24 h after gemcitabine, Cycle 1 Day 2) was 3170 ng/mL. For the same compound, the AUC(0-inf) [8, 16] was 29400 ng·h/mL, the AUC(0-t) [8, 16] was 23200 ng·h/mL and the clearance [8, 16] was 130 mL/min. The Vd [8, 16] was 104 L, the half-life [8, 16] was 9.67 h and the AUC(0-inf) [8, 17] was 29100 ng·h/mL. For the same compound, the AUC(0-t) [8, 17] was 23700 ng·h/mL, the clearance [8, 17] was 131 mL/min and the Cmax [8, 17] was 3410 ng/mL. For the same compound, the Vd [8, 17] was 95.1 L, the half-life [8, 17] was 8.86 h and the Tmax ([8]; human, plasma, intravenous, 230 mg LY2603618, Cycle 1 Day 2, read-out: tmax, Median (range)) was 1 h. For the same compound, the “Patients with change in QTcF from baseline >60 msec” value [9] was “no patients”, the “Patients with change in QTcF from baseline between 30 and 60 msec” value [9] was “Five” and the “Trends in ECG parameter changes (time-point QTcF assessment)” value [9] was “no clinically significant trends”. The “Relation of increases in dFdC incorporation into DNA to LY2603618 dose” value ([5]; in vivo) was “did not correspond to increasing doses of LY2603618”, the “Plasma systemic exposure target AUC(0-∞) that correlates with maximal pharmacodynamic effect” value [10] was ≥ 21,000 ng hr/mL and the “Plasma systemic exposure target Cmax that correlates with maximal pharmacodynamic effect” value [10] was at least 2000 ng/mL. For the same compound, the “Recommended Phase II dose” value [11] was 230 mg.
